Reference: PubChem BioAssay AID248 (DTP/NCI, 2004)
Values joined by “and” are separate entries in the source; they are usually repeats but may differ in a detail not shown here. Equal entries are not always repeated. Inconclusive results and toxic doses are left out.

System: L1210 leukemia ip in BDF1 mice, survival T/C
Assay: NCI In Vivo Anticancer Drug Screen. Data for tumor model L1210 Leukemia (intraperitoneal) in B6D2F1 (BDF1) mice
Conditions: endpoint: mean survival time, higher = longer survival
In short: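 Transplantable tumor model; survival measured in treated vs vehicle control mice. Value = treated/control.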

[1] = dose: 100.0 mg/kg/injection, schedule: Q01DX001 (ip), vehicle: Klucel (hydroxypropylcellulose) (HPC)
[2] = dose: 200.0 mg/kg/injection, schedule: Q01DX001 (ip), vehicle: Klucel (hydroxypropylcellulose) (HPC)
[3] = dose: 400.0 mg/kg/injection, schedule: Q01DX001 (ip), vehicle: Klucel (hydroxypropylcellulose) (HPC)
[4] = dose: 100.0 mg/kg/injection, schedule: Q01DX009 (ip), vehicle: Klucel (hydroxypropylcellulose) (HPC)
[5] = dose: 100.0 mg/kg/injection, schedule: Q04DX003 (ip), vehicle: Klucel (hydroxypropylcellulose) (HPC)
[6] = dose: 200.0 mg/kg/injection, schedule: Q01DX009 (ip), vehicle: Klucel (hydroxypropylcellulose) (HPC)
[7] = dose: 200.0 mg/kg/injection, schedule: Q04DX003 (ip), vehicle: Klucel (hydroxypropylcellulose) (HPC)
[8] = dose: 400.0 mg/kg/injection, schedule: Q01DX009 (ip), vehicle: Klucel (hydroxypropylcellulose) (HPC)
[9] = dose: 400.0 mg/kg/injection, schedule: Q04DX003 (ip), vehicle: Klucel (hydroxypropylcellulose) (HPC)
[10] = dose: 100.0 mg/kg/injection, schedule: Q01DX009 (ip), vehicle: saline
[11] = dose: 200.0 mg/kg/injection, schedule: Q01DX009 (ip), vehicle: saline
[12] = dose: 50.0 mg/kg/injection, schedule: Q01DX009 (ip), vehicle: saline with Tween-80
[13] = dose: 100.0 mg/kg/injection, schedule: Q01DX009 (ip), vehicle: saline with Tween-80

O=C(COc1ccc(Cl)cc1Cl)OC(=O)COc1ccc(Cl)cc1Cl
T/C (dose: 12.5 mg/kg/injection, schedule: Q01DX009 (ip), vehicle: carboxymethylcellulose (CMC)): 100 % of control and 106 % of control
T/C (dose: 25.0 mg/kg/injection, schedule: Q01DX009 (ip), vehicle: carboxymethylcellulose (CMC)): 102 % of control and 103 % of control
T/C (dose: 50.0 mg/kg/injection, schedule: Q01DX001 (ip), vehicle: carboxymethylcellulose (CMC)): 92 % of control
T/C (dose: 50.0 mg/kg/injection, schedule: Q04DX003 (ip), vehicle: carboxymethylcellulose (CMC)): 92 % of control
T/C (dose: 100.0 mg/kg/injection, schedule: Q01DX001 (ip), vehicle: carboxymethylcellulose (CMC)): 97 % of control
T/C (dose: 100.0 mg/kg/injection, schedule: Q01DX009 (ip), vehicle: carboxymethylcellulose (CMC)): 94 % of control
T/C (dose: 100.0 mg/kg/injection, schedule: Q04DX002 (ip), vehicle: Klucel (hydroxypropylcellulose) (HPC)): 95 % of control
T/C (dose: 100.0 mg/kg/injection, schedule: Q04DX002 (ip), vehicle: carboxymethylcellulose (CMC)): 97 % of control and 100 % of control
T/C (dose: 100.0 mg/kg/injection, schedule: Q04DX003 (ip), vehicle: carboxymethylcellulose (CMC)): 94 % of control
T/C (dose: 200.0 mg/kg/injection, schedule: Q01DX001 (ip), vehicle: carboxymethylcellulose (CMC)): 89 % of control
T/C (dose: 200.0 mg/kg/injection, schedule: Q04DX002 (ip), vehicle: Klucel (hydroxypropylcellulose) (HPC)): 95 % of control
T/C (dose: 200.0 mg/kg/injection, schedule: Q04DX002 (ip), vehicle: carboxymethylcellulose (CMC)): 97 % of control and 98 % of control
T/C (dose: 400.0 mg/kg/injection, schedule: Q04DX002 (ip), vehicle: Klucel (hydroxypropylcellulose) (HPC)): 98 % of control

O=C1OCC/C1=C/CCCCC/C=C1\CCOC1=O
T/C (dose: 100.0 mg/kg/injection, schedule: Q01DX001 (sc), vehicle: olive oil, sesame oil, peanut oil): 103 % of control
T/C (dose: 100.0 mg/kg/injection, schedule: Q04DX003 (sc), vehicle: olive oil, sesame oil, peanut oil): 104 % of control
T/C (dose: 200.0 mg/kg/injection, schedule: Q01DX001 (sc), vehicle: olive oil, sesame oil, peanut oil): 100 % of control
T/C (dose: 200.0 mg/kg/injection, schedule: Q04DX003 (sc), vehicle: olive oil, sesame oil, peanut oil): 100 % of control
T/C (dose: 400.0 mg/kg/injection, schedule: Q01DX001 (sc), vehicle: olive oil, sesame oil, peanut oil): 96 % of control
T/C (dose: 400.0 mg/kg/injection, schedule: Q04DX003 (sc), vehicle: olive oil, sesame oil, peanut oil): 102 % of control

O=C1c2cc(-c3ccccc3)c(-c3ccccc3)cc2C(c2ccccc2)(c2ccccc2)C1Br (centres undefined)
T/C (dose: 100.0 mg/kg/injection, schedule: Q04DX003 (ip), vehicle: saline with Tween-80): 94 % of control
T/C (dose: 200.0 mg/kg/injection, schedule: Q04DX003 (ip), vehicle: saline with Tween-80): 91 % of control
T/C (dose: 400.0 mg/kg/injection, schedule: Q04DX003 (ip), vehicle: saline with Tween-80): 93 % of control

O=C(CCCN1CC=C(c2ccccc2)CC1)c1ccc(N2CCC(O)(c3ccc(Cl)cc3)CC2)cc1
T/C [1]: 89 % of control
T/C [2]: 95 % of control
T/C [3]: 92 % of control

C#CC1(O)CCCCC1
T/C [4]: 108 % of control
T/C [5]: 94 % of control
T/C [6]: 97 % of control
T/C [7]: 100 % of control
T/C [8]: 97 % of control
T/C [9]: 96 % of control

O=c1c2ccccc2[nH]c(=S)n1C1CCCCC1
T/C [4]: 99 % of control
T/C [5]: 90 % of control
T/C [6]: 103 % of control
T/C [7]: 101 % of control
T/C [8]: 98 % of control
T/C [9]: 100 % of control

Cc1cc(NC(=O)NC/C=C/Br)c2ccccc2n1
T/C [1]: 97 % of control
T/C [5]: 98 % of control
T/C [2]: 108 % of control
T/C [7]: 93 % of control
T/C [3]: 97 % of control
T/C [9]: 101 % of control

CC(C)(C)C#CCCl
T/C (dose: 100.0 mg/kg/injection, schedule: Q01DX001 (ip), vehicle: saline): 96 % of control
T/C [10]: 116 % of control
T/C (dose: 200.0 mg/kg/injection, schedule: Q01DX001 (ip), vehicle: saline): 105 % of control
T/C [11]: 97 % of control
T/C (dose: 400.0 mg/kg/injection, schedule: Q01DX001 (ip), vehicle: saline): 94 % of control

O=NN(CCCl)C(=O)Nc1ccc2c(c1)-c1ccccc1C2
T/C (dose: 118.0 mg/kg/injection, schedule: Q01DX001 (ip), vehicle: carboxymethylcellulose (CMC)): 121 % of control
T/C (dose: 118.0 mg/kg/injection, schedule: Q01DX009 (ip), vehicle: carboxymethylcellulose (CMC)): 188 % of control and 196 % of control
T/C (dose: 177.0 mg/kg/injection, schedule: Q01DX009 (ip), vehicle: carboxymethylcellulose (CMC)): 122 % of control
T/C (dose: 266.0 mg/kg/injection, schedule: Q01DX009 (ip), vehicle: carboxymethylcellulose (CMC)): 88 % of control
T/C (dose: 400.0 mg/kg/injection, schedule: Q01DX001 (ip), vehicle: carboxymethylcellulose (CMC)): 159 % of control
T/C (dose: 400.0 mg/kg/injection, schedule: Q01DX009 (ip), vehicle: carboxymethylcellulose (CMC)): 92 % of control and 113 % of control
T/C (dose: 600.0 mg/kg/injection, schedule: Q01DX001 (ip), vehicle: carboxymethylcellulose (CMC)): 150 % of control

CCCCCCCCCCCCCCCCCC(=O)N/N=C/c1ccccc1
T/C (dose: 100.0 mg/kg/injection, schedule: Q01DX009 (ip), vehicle: other): 91 % of control
T/C (dose: 200.0 mg/kg/injection, schedule: Q01DX009 (ip), vehicle: other): 89 % of control
T/C (dose: 400.0 mg/kg/injection, schedule: Q01DX009 (ip), vehicle: other): 105 % of control

O/N=C/c1ccco1
T/C (dose: 100.0 mg/kg/injection, schedule: Q04DX002 (ip), vehicle: saline with Tween-80): 100 % of control
T/C (dose: 200.0 mg/kg/injection, schedule: Q04DX002 (ip), vehicle: saline with Tween-80): 103 % of control
T/C (dose: 400.0 mg/kg/injection, schedule: Q04DX002 (ip), vehicle: saline with Tween-80): 103 % of control

N=C(N)SCCC(=O)O
T/C [10]: 100 % of control
T/C (dose: 100.0 mg/kg/injection, schedule: Q04DX003 (ip), vehicle: saline): 90 % of control
T/C [11]: 110 % of control
T/C (dose: 200.0 mg/kg/injection, schedule: Q04DX003 (ip), vehicle: saline): 96 % of control
T/C (dose: 400.0 mg/kg/injection, schedule: Q01DX009 (ip), vehicle: saline): 115 % of control
T/C (dose: 400.0 mg/kg/injection, schedule: Q04DX003 (ip), vehicle: saline): 95 % of control

CC1=CC(C)(C)NC(=S)N1c1cccc2ccccc12
T/C (dose: 75.0 mg/kg/injection, schedule: Q01DX009 (ip), vehicle: saline with Tween-80): 90 % of control
T/C (dose: 150.0 mg/kg/injection, schedule: Q01DX009 (ip), vehicle: saline with Tween-80): 87 % of control
T/C (dose: 224.0 mg/kg/injection, schedule: Q01DX Z (ip), vehicle: methylcellulose (MC)): 94 % of control
T/C (dose: 300.0 mg/kg/injection, schedule: Q01DX009 (ip), vehicle: saline with Tween-80): 88 % of control
T/C (dose: 334.0 mg/kg/injection, schedule: Q01DX Z (ip), vehicle: methylcellulose (MC)): 86 % of control
T/C (dose: 500.0 mg/kg/injection, schedule: Q01DX Z (ip), vehicle: methylcellulose (MC)): 88 % of control
T/C (dose: 750.0 mg/kg/injection, schedule: Q01DX Z (ip), vehicle: methylcellulose (MC)): 102 % of control

c1cc(C2OCCO2)cs1
T/C [12]: 86 % of control
T/C [13]: 86 % of control

NC(=O)c1ccc[n+](CCCl)c1
T/C (dose: 62.5 mg/kg/injection, schedule: Q01DX010 (ip), vehicle: saline): 94 % of control
T/C (dose: 125.0 mg/kg/injection, schedule: Q01DX010 (ip), vehicle: saline): 93 % of control

N/C(=N\O)c1c(N)ncn1C1OC(CO)C(O)C1O (centres undefined)
T/C (dose: 100.0 mg/kg/injection, schedule: Q01DX005 (ip), vehicle: saline): 97 % of control
T/C (dose: 200.0 mg/kg/injection, schedule: Q01DX005 (ip), vehicle: saline): 100 % of control

CC(C)CP(=O)(CC(C)C)C1CCCC1
T/C (dose: 100.0 mg/kg/injection, schedule: Q01DX001 (ip), vehicle: saline with Tween-80): 100 % of control
T/C (dose: 200.0 mg/kg/injection, schedule: Q01DX001 (ip), vehicle: saline with Tween-80): 105 % of control

CCc1nc2ccccc2c(=O)n1-c1ccc(Cl)cc1
T/C [12]: 92 % of control
T/C [13]: 95 % of control
